The subject of assay [1] is scopolamine-induced amnesia. Description: Passive avoidance memory test (scopolamine-induced amnesia) in rats. The format is in vivo. Conditions: for Latency to enter the dark compartment: scopolamine, measured 48 h after training, carrier 24±12. The procedure:
Example 31 was evaluated in rats in a memory test, the passive avoidance test (Chopin P, Briley M. Effects of four non-cholinergic cognitive enhancers in comparison with tacrine and galanthamine on scopolamine-induced amnesia in rats, Psychopharmacology (Berl), 1992; 106:26-30). This test consists of teaching a rat not to enter a dark compartment (its naturally preferred place) where it had previously received an electric shock (0.8 mA). The animal's reticence (the time lapse or “latency” to enter the dark compartment) measured 48 h after its training is considered as an index of its explicit-declarative memory. Latency greatly […] when an amnesic product such as scopolamine is administered shortly after receiving the first shock. A product with promnesic properties opposes the effects of scopolamine.

Assay [2] relates to MK-801-induced hyperactivity. Nature of the assay: MK-801-induced hyperactivity test in mice. The format is in vivo. The settings on record: Mus musculus.
Assay [3] concerns the target T1, adrenergic receptor alpha2A (Homo sapiens, UniProt P08913).
T1 construct: expressed in transfected cells; host or cells: recombinant human cells (so in the source)
T1 sequence (P08913 1-465): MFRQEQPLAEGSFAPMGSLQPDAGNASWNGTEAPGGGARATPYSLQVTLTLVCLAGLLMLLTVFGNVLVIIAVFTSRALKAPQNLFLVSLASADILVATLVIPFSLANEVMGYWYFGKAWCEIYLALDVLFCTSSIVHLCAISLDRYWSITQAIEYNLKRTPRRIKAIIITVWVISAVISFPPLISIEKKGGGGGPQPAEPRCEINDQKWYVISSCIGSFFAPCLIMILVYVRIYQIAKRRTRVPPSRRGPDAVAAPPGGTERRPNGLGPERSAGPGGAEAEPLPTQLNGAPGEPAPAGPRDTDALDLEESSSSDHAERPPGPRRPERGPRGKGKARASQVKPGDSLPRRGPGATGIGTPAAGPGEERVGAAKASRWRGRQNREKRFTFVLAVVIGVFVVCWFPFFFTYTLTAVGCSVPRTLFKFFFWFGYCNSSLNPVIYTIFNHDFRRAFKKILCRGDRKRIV
Description: Inhibition constants (Ki) for adrenergic receptor alpha2A in recombinant cells. The format is binding. The settings on record: read-out: pKi α2A (converted). The procedure: (§1) Compounds of formula 1 have been evaluated in vitro as ligands for dopaminergic and noradrenergic receptors and modulators of the activity of these receptors according to the invention in recombinant human cells expressing the receptors. The inhibition constants (Ki) were measured for dopaminergic receptors D2 and D3, and for adrenergic receptors alpha2A, alpha2B and alpha2C, according to the described methods (Newman-Tancredi A, Assie M B, Martel J C, Cosi C, Slot L B, Palmier C, Rauly-Lestienne I, Colpaert F, Vacher B, Cussac D. F15063, a potential antipsychotic with D2/D3 antagonist, 5-HT 1A agonist and D4 partial agonist properties. I. In vitro receptor affinity and efficacy profile. Br J Pharmacol., 2007, 151:237-252). The intrinsic activity of the products for the D2 receptor was measured (Bruins Slot L A, De Vries L, Newman-Tancredi A, Cussac D. Differential profile of antipsychotics at serotonin 5-HT1A and dopamine D2S receptors coupled to extracellular signal-regulated kinase. Eur J Pharmacol, 2006, 534; 63-70. The results obtained for some of these compounds are presented in the following table.

Another assay addresses T2, dopaminergic receptor D3 (Homo sapiens, UniProt P35462).
T2 construct: expressed in transfected cells; host or cells: recombinant human cells (so in the source)
Nature of the assay: Inhibition constants (Ki) for dopaminergic receptor D3 in recombinant cells. It counts as binding. The settings on record: read-out: pKi D3 (converted). The procedure: as §1

Assay [4] has as its target T3, adrenergic receptor alpha2B (Homo sapiens, UniProt P18089).
T3 construct: expressed in transfected cells; host or cells: recombinant human cells (so in the source)
T3 sequence (P18089 1-450): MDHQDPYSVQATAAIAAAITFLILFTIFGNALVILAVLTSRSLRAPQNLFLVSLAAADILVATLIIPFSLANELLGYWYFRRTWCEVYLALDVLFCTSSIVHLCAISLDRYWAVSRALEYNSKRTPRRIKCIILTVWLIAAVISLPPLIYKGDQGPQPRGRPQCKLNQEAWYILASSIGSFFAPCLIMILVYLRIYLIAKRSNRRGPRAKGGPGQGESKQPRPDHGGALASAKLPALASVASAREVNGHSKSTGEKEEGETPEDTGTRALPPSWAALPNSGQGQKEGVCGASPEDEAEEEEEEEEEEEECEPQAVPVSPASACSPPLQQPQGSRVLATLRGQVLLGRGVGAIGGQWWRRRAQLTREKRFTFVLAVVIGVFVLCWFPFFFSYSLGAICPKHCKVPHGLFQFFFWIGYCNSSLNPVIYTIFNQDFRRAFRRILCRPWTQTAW
Description: Inhibition constants (Ki) for adrenergic receptor alpha2B in recombinant cells. The format is binding. Conditions: read-out: pKi α2B (converted). The procedure:
as §1

The target in the next assay is T4, dopaminergic receptor D2 (Homo sapiens, UniProt P14416).
T4 construct: expressed in transfected cells; host or cells: recombinant human cells (so in the source)
Description: Inhibition constants (Ki) for dopaminergic receptor D2 in recombinant cells. It counts as binding. The settings on record: read-out: pKi D2 (converted). The procedure:
as §1

The target in assay [5] is T5, adrenergic receptor alpha2C (Homo sapiens, UniProt P18825).
T5 construct: expressed in transfected cells; host or cells: recombinant human cells (so in the source)
T5 sequence (P18825 1-462): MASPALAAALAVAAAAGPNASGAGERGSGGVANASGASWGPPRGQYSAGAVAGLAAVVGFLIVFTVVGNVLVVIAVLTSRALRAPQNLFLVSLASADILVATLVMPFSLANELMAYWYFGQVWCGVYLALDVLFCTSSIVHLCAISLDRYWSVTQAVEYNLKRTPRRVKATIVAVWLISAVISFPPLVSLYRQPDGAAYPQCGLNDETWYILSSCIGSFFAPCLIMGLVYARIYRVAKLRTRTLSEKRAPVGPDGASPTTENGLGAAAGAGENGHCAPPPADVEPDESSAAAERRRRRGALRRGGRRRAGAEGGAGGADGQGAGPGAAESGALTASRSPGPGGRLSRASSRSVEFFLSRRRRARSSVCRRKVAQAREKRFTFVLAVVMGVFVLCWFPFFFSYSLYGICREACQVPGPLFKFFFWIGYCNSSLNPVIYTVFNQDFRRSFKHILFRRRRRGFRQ
Nature of the assay: Inhibition constants (Ki) for adrenergic receptor alpha2C in recombinant cells. The format is binding. The settings on record: read-out: pKi α2C (converted). The procedure: as §1

For a further assay, the target named is T6, D2 receptor (Homo sapiens, UniProt P14416).
T6 construct: expressed in transfected cells; host or cells: recombinant human cells (so in the source)
Nature of the assay: Intrinsic (agonist) activity at the D2 receptor. It counts as cell-based. The procedure:
The prior art mentions, for benzodioxane-piperidine derivatives bearing an amide, a urea or an imidazolidinone, as non-selective alpha2-antagonists (WO 97/28157, WO 98/02435); some of these products also have a weak affinity for the D2 dopaminergic receptor (T. Imbert, J. Med. Chem, 2000, 43: 3653-3664). […] Activity as a D2 and D3 receptor agonist was determined according to the described methods (Bruins Slot L A, De Vries L, Newman-Tancredi A, Cussac D. Differential profile of antipsychotics at serotonin 5-HT1A and dopamine D2S receptors coupled to extracellular signal-regulated kinase. Eur J Pharmacol, 2006, 534; 63-70; Bruins Slot L A, Palmier C, Tardif S, Cussac D. Action of novel antipsychotics at human dopamine D3 receptors coupled to G protein and ERK1/2 activation. Neuropharmacology, 2007, 53: 232-241) for the following compounds, such as described in WO 97/28157 and WO 98/02435; • 1-benzyl-3-(2-(1-((2,3-dihydrobenzo[b][1,4]dioxin-2-yl)methyl)piperidin-4-yl)ethyl)imidazolidin-2-one • 1-(2-(1-((2,3-dihydrobenzo[b][1,4]dioxin-2-yl)methyl)piperidin-4-yl)ethyl)-3-methylimidazolidin-2-one • 1-(2,6-dichlorophenyl)-3-(2-(1-((2,3-dihydrobenzo[b][1,4]dioxin-2-yl)methyl)piperidin-4-yl)ethyl)imidazolidin-2-one • 1-(2-(1-((2,3-dihydrobenzo[b][1,4]dioxin-2-yl)methyl)piperidin-4-yl)ethyl)-3-(pyridin-4-yl)imidazolidin-2-one • 3-(2-(1-((2,3-dihydrobenzo[b][1,4]dioxin-2-yl)methyl)piperidin-4-yl)ethyl)-1-phenylimidazolidine-2,4-dione • (S)—N-(2-(1-((2,3-dihydrobenzo[b][1,4]dioxin-2-yl)methyl)piperidin-4-yl)ethyl)-[1,1′-biphenyl]-4-carboxamide • (S)—N-(2-(1-((2,3-dihydrobenzo[b][1,4]dioxin-2-yl)methyl)piperidin-4-yl)ethyl)-4-(1H-pyrrol-1-yl)benzamide • (S)—N-(2-(1-((2,3-dihydrobenzo[b][1,4]dioxin-2-yl)methyl)piperidin-4-yl)ethyl)-4-(pyridin-4-yl)benzamide • (S)—N-(2-(1-((2,3-dihydrobenzo[b][1,4]dioxin-2-yl)methyl)piperidin-4-yl)ethyl)-4-(pyridin-3-yl)benzamide • (S)—N-(2-(1-((2,3-dihydrobenzo[b][1,4]dioxin-2-yl)methyl)piperidin-4-yl)ethyl)-9-oxo-9H-fluorene-1-carboxamide.
as §1

A word on the ED50: it is the midpoint of the dose-response relation. Low readings indicate an effect at a small dose, high ones a need for a large dose.

T6 sequence (P14416 1-414 isoform P14416-2): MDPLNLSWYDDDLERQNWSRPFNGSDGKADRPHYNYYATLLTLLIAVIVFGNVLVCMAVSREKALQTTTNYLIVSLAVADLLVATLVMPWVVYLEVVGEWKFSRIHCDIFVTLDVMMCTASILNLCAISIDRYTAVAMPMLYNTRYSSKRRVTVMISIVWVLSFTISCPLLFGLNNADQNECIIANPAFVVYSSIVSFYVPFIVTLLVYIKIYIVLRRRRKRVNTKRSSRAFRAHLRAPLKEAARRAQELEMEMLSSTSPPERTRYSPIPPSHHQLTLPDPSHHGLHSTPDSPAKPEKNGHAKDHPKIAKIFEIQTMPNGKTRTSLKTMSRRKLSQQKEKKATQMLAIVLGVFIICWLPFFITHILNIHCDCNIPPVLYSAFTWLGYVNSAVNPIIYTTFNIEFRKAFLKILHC
T2 sequence (P35462 whole entry): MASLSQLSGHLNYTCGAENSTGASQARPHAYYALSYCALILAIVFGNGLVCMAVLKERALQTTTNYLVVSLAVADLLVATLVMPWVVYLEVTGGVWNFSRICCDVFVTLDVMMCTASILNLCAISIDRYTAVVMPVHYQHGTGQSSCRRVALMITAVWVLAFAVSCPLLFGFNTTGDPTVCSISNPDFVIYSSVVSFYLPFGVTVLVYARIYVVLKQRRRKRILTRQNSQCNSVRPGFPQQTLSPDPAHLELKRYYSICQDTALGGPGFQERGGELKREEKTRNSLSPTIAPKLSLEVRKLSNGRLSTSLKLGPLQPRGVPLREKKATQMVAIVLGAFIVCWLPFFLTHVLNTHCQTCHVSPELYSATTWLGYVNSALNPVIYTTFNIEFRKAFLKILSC
T4 sequence (P14416 whole entry): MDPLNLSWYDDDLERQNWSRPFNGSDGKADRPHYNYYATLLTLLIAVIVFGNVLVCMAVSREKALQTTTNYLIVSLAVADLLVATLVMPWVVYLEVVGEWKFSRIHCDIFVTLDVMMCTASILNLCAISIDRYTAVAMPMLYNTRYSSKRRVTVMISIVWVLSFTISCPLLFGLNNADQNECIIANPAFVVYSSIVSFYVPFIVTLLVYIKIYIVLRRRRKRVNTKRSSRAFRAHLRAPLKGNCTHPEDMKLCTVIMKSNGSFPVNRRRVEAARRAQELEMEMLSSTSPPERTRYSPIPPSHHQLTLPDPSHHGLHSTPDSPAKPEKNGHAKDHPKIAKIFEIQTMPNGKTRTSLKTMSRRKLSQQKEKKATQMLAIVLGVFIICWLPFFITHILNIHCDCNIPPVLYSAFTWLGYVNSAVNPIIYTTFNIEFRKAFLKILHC

As for `Cc1ccc2c(c1)O[C@@H](CN1CCC(CCN3C(=O)OC[C@@H]3Cc3ccccc3)CC1)CO2` [Example 31, (S)-4-benzyl-3-(2-(1-(((S)-7-methyl-2,3-dihydrobenzo[b][1,4]dioxin-2-yl)methyl)piperidin-4-yl)ethyl)oxazolidin-2-one], in assay [1] (doses of 0.16, 0.63, 2.5 and 10 mg/kg), the “Effect on scopolamine-induced amnesia in the passive avoidance test” value is reported as “opposed to the effect of scopolamine”. Also, the ED50 in assay [2] worked out at 2.1 mg/kg. The Ki was 5.13 nM in assay [3]; 0.525 nM at dopaminergic receptor D3; 2.95 nM in assay [4]; 1.17 nM on dopaminergic receptor D2; 1 nM in assay [5]. For the same compound, the “I.A.: Intrinsic activity on receptor D2 in vitro” value (from here on “I.A.: Intrinsic activity”) at D2 receptor is given as 0 percentage of that of dopamine.

Regarding `O=C1OC[C@@H](CO)N1CCC1CCN(C[C@H]2COc3c(F)cc(Cl)cc3O2)CC1` [Example 62, (R)-3-(2-(1-(((S)-7-chloro-5-fluoro-2,3-dihydrobenzo[b][1,4]dioxin-2-yl)methyl)piperidin-4-yl)ethyl)-4-(hydroxymethyl)oxazolidin-2-one], the ED50 in assay [2] turned out to be 2.1 mg/kg. Besides, the Ki in assay [3] was 30.9 nM; on dopaminergic receptor D3, 0.347 nM; in assay [4], 10.5 nM; at dopaminergic receptor D2, 1.58 nM; in assay [5], 1.62 nM. In addition, on D2 receptor, the “I.A.: Intrinsic activity” value was 0 percentage of that of dopamine.

In turn, `O=C1OC[C@@H](CO)N1CCC1CCN(C[C@H]2COc3c(Cl)cc(F)cc3O2)CC1` [Example 63, (R)-3-(2-(1-(((S)-5-chloro-7-fluoro-2,3-dihydrobenzo[b][1,4]dioxin-2-yl)methyl)piperidin-4-yl)ethyl)-4-(hydroxymethyl)oxazolidin-2-one] had an ED50 in assay [2] of 0.2 mg/kg. For the same compound, the Ki in assay [3] was 53.7 nM; at dopaminergic receptor D3, 1.32 nM; in assay [4], 8.32 nM; on dopaminergic receptor D2, 3.09 nM; in assay [5] it was 2.69 nM. Also, the “I.A.: Intrinsic activity” value on D2 receptor is 5 percentage of that of dopamine.

`O=C1OCCN1CCC1CCN(C[C@H]2COc3ccc(F)cc3O2)CC1` [Example 7, (S)-3-(2-(1-((7-fluoro-2,3-dihydrobenzo[b][1,4]dioxin-2-yl)methyl)piperidin-4-yl)ethyl)oxazolidin-2-one]: the 50% effect level in assay [2] (ED50) was put at a dose of 0.15 mg/kg. The Ki was 8.71 nM in assay [3]; 6.46 nM at dopaminergic receptor D3; 1.95 nM in assay [4]; 14.5 nM on dopaminergic receptor D2; 0.851 nM in assay [5]. For the same compound, the “I.A.: Intrinsic activity” value at D2 receptor is on record as 36 percentage of that of dopamine.

As to `O=C1OCCN1CCC1CCN(C[C@H]2COc3ccccc3O2)CC1` [Example 1, (S)-3-(2-(1-((2,3-dihydrobenzo[b][1,4]dioxin-2-yl)methyl)piperidin-4-yl)ethyl)oxazolidin-2-one], the “Latency to enter the dark compartment” value in assay [1] (dose 0.63 mg/kg) amounted to 60 ± 21 s; in assay [1] (dose 2.5 mg/kg), 78 ± 22 s.

Values taken from US20150336943A1, “NOVEL BENZODIOXANE-PIPERIDINE DERIVATIVES AND THEIR THERAPEUTIC APPLICATIONS FOR TREATING NEUROPSYCHIATRIC DISORDERS” (PIERRE FABRE MEDICAMENT, priority 2013, published 2015).
